Key:
human p75^NTR receptor = target: T1, human p75^NTR receptor (Homo sapiens, UniProt P08138); assay: Dimerization of the p75NTR receptor independently of its ligand (soluble p75NTR-alkaline phosphatase binding to SK-N-BE Bep 75 cells); format: cell-based; settings: soluble p75NTR-alkaline phosphatase 10 nM, 1 h preincubation at 37° C.
T1 construct: the whole form of the human p75^NTR receptor; expressed in transfected cells; the soluble AP fusion comes from the supernatant of transiently transfected HEK293 cells
T1 sequence (P08138 29-427): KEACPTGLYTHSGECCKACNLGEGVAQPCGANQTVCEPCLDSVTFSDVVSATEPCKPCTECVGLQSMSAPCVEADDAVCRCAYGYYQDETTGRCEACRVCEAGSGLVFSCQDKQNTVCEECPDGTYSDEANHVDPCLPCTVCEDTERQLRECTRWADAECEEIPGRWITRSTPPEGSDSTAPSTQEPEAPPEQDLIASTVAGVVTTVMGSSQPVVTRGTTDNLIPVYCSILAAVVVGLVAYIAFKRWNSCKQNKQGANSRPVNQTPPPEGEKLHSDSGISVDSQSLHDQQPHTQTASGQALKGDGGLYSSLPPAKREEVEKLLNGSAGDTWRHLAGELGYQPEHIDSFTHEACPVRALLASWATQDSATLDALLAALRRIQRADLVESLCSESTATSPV
Experimental: (§1) The SK-N-BE parent strain (human neuroblastoma) and the Bep 75 clone, stably expressing the whole form of the human p75^NTR receptor (SK-N-BE Bep 75) are cultured conventionally in an RPMI culture medium containing FCS (5%), sodium pyruvate (1 mM) and glutamine (4 mM). For the SK-N-BE Bep 75 cells, hygromycin ([…] of medium) is added as selection agent.
Study of the dimerization of the p75^NTR receptor independently of its ligand.
The p75^NTR receptor dimerization study is carried out on a cell suspension of the SK-N-BE Bep 75 strain. The cells (2.5×10^4 cells/well) are placed in wells (96-well plate) for 24 h, and then preincubated for 1 h at 37° C. in the presence or absence of the compounds according to the invention. Supernatant is then added, this supernatant being derived from the culture of HEK293 human cells of renal origin expressing, after 48 h of transfection, and secreting a soluble form of the p75^NTR receptor (extracellular part of the receptor) coupled to an alkaline phosphatase, at the final concentration of 10 nM. The quantification of the specific binding of the soluble p75^NTR receptor to the receptor present on SK-N-BE Bep 75 cells is determined by measuring the alkaline phosphatase enzyme activity after incubation of the cells for 1 hour at 37° C. in the presence of the supernatant. After filtration and transfer of the filters into 24-well plates, the alkaline phosphatase activity is determined by adding CDP-Star chemiluminescent substrate (ready-to-use, Roche). The concentrations inhibiting 50% (Cl50) of the dimerization of the p75^NTR receptor, of the compounds according to the invention, are low and range from 10^−6 to 10^−11M.

[1] = tested on: human neuroblastoma strains SH-SY-5Y and SK-N-BE Bep 75; assay: Measurement of NGF-induced apoptosis (cell death detection ELISA); format: cell-based; settings: SH-SY5Y, NGF 10 ng/ml, 48 h (SH-SY-5Y) or 24 h (SK-N-BE Bep 75), read-out: IC50 of inhibitory activity on NGF-induced apoptosis
Experimental: The SH-SY-5Y strain (human neuroblastoma) is cultured conventionally in a DMEM culture medium (Dulbecco's Modified Eagle's Medium) (Gibco BRL, France) containing FCS (5%) (foetal calf serum) (Boehringer Mannheim, Germany), sodium pyruvate (1 mM) and glutamine (4 mM) in culture flasks coated with collagen (Becton Dickinson, France).
as §1
The cells (human neuroblastoma strains SH-SY-5Y and SK-N-BE Bep 75) are placed in 35 mm diameter Petri dishes (Biocoat collagen I, (10^5 cells/well)) in an appropriate culture medium containing 5% of FCS, for 24 h. […] The degrees of apoptosis are measured 48 hours after the treatments in the case of the SH-SY-5Y strain, and 24 hours after in the case of the SK-N-BE Bep 75 strain, by quantification of the DNA fragment-associated cytoplasmic histones (cell death detection ELISA, Boehringer Mannheim, Germany). The degrees of apoptosis are expressed as amount of oligonucleosomes/10^5 cells. […]

Structure (SMILES) | IC50 (human p75^NTR receptor) | IC50 [1] | melting point
O=C(CN1CCN(c2ccc(C(F)(F)F)cn2)C(=O)C1)N1CCc2nc(-c3ccccc3)sc2C1 [compound 11, 4-[2-oxo-2-(2-phenyl-6,7-dihydro-4H-thiazolo[5,4-c]pyridin-5-yl)ethyl]-1-(5-trifluoromethylpyridin-2-yl)piperazin-2-one] | 1.9 nM | 4.46 nM | –
O=C(O)c1ccc(N2C3CCC2CN(CC(=O)N2CCc4nn(-c5ccccc5)cc4C2)C3)nc1 [compound 24, 6-{3-[2-oxo-2-(2-phenyl-2,4,6,7-tetrahydropyrazolo[4,3-c]pyridin-5-yl)ethyl]-3,8-diazabicyclo[3.2.1]oct-8-yl}nicotinic acid] | 1.55 nM | – | 202 to 206 °C
COC(=O)c1ccc(N2C3CCC2CN(CC(=O)N2CCc4nn(-c5ccccc5)cc4C2)C3)nc1 [compound 19, 6-{3-[2-oxo-2-(2-phenyl-2,4,6,7-tetrahydropyrazolo[4,3-c]pyridin-5-yl)ethyl]-3,8-diazabicyclo[3.2.1]oct-8-yl}nicotinic acid methyl ester] | 14 nM | – | 204 to 205 °C
C[C@@H]1CN(c2ccc(C(F)(F)F)cn2)C[C@H](C)N1CC(=O)N1CCc2nc(-c3ccccc3)sc2C1 [compound 9, 2-[(2S,6R)-2,6-dimethyl-4-(5-trifluoromethylpyridin-2-yl)piperazin-1-yl]-1-(2-phenyl-6,7-dihydro-4H-thiazolo[5,4-c]pyridin-5-yl)ethanone] | 0.73 nM | 0.72 nM | –
